The numbers were not newly measured in patent publication US20020022057A1, “Oral delivery of pharmaceuticals via encapsulation” (priority 2000, published 2002), which cites them from elsewhere.

The conditions of series [1]: applied topically to the skin.
The conditions of series [2]: sublingual versus oral.

On to `CC(=O)Oc1ccccc1C(=O)O` [Aspirin, aspirin], for which the “skin reactions, including erythema and peeling” value in series [1] is listed as 30 % of the subjects.

For `CC(=O)[C@H]1CC[C@H]2[C@@H]3CCC4=CC(=O)CC[C@]4(C)[C@H]3CC[C@]12C` [progesterone], in series [2], the “sublingual applications more effective than oral applications” value was 50%.
